According to US11622946B2, “Uses of a carotenoid in the treatment or prevention of stress induced conditions” (GREENALTECH, S.L., priority 2016, dated 2023):
Read-outs that look alike come from different tables or passages of the source.

Experiments:
[1] = biological target: T1, human Gluocorticoid receptor (GR) (Homo sapiens, UniProt P04150); test: GR antagonist assay (GeneBLAzer beta-lactamase reporter, GR-UAS-bla HEK 293T cells, dexamethasone as agonist); assay type: cell-based; conditions: for antagonist effect on GR (in words) / GR inhibition: against dexamethasone; for GR inhibition: at 10 μM
T1 construct: expressed in transfected cells; host or cells: GeneBLAzer UAS-bla HEK 293T
T1 sequence (P04150 524-758 limits assumed): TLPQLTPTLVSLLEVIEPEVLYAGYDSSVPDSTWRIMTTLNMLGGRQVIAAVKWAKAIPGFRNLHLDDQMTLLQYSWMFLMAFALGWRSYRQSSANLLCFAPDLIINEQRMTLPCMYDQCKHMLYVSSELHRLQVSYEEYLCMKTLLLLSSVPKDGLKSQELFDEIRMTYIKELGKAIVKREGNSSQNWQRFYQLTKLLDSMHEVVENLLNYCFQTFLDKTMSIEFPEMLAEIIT
Procedure: An antagonist assay for GR was performed.
These cells stably express a beta-lactamase reporter gene under the transcriptional control of an upstream activator sequence (UAS). When an agonist binds to the LBD of the GAL4 (DBD)-GR (LBD) fusion protein, the protein binds to the UAS, resulting in expression of beta-lactamase.
32 μL of cell suspension is added to the wells and pre-incubated at 37° C./5% CO2 in a humidified incubator with compounds and control antagonist titration for 30 minutes. 4 μL of 10× control agonist. Dexamethasone at the pre-determined EC80 concentration is added to wells containing the control antagonist or compounds. The plate is incubated for 16-24 hours at 37° C./5% CO2 in a humidified incubator. 8 μL of 1 μM Substrate Loading Solution is added to each well and the plate is incubated for 2 hours at room temperature. The plate is read on a fluorescence plate reader.

[2] = tested on: triple negative breast adenocarcinoma cell line MDA-MB-231; test: Cytotoxicity by the MTT method; conditions: MDA-MB-231, 72 h, read-out: EC50 (cytotoxic effect)
Procedure: For that purpose the cytotoxic effects (EC50) of fucoxanthin (063-06691, Wako Chemicals) alone and combined with paclitaxel (T1912, Sigma-Aldrich) on the triple negative breast adenocarcinoma cell line MDA-MB-231 (ECACC: 92020424) were assessed.
In a first setup, MDA-MB-231 cells were seeded in 96 well plates with 100 μL of DMEM +10% FBS and incubated at 37° C., 5% CO2 and 90% humidity. After 24 hours, with a confluence and viability of between 80 and 90% as assessed by trypan blue test, cells were treated with serial dilutions (1:3) in DMEM+10% FBS of fucoxanthin solubilized in DMSO ranging from 100 μM to 15.2 nM.
In a second setup, MDA-MB-231 cells were seeded in 96 well plates with 100 μL of DMEM +10% FBS and incubated at 37° C., 5% CO2 and 90% humidity. After 24 hours, with a confluence and viability of between 80 and 90% as assessed by trypan blue test, cells were treated with serial dilutions (1:3) of paclitaxel in DMEM+10% FBS ranging from 1 μM to 0.15 nM or with both the same concentrations of paclitaxel plus a fixed subtoxic concentration of fucoxanthin (1 μM) solubilized in DMSO (100 μM).

[3] = tested on: HaCat cell line; test: Hydrocortisone-induced DNA damage assay (HCS DNA Damage kit, phosphorylated H2AX); assay type: cell-based, human; conditions: compounds at 0.1 μM, 1 h before 10 μM hydrocortisone
Procedure: HaCat cell line, a spontaneously transformed aneuploid immortal keratinocyte cell line from adult human skin was used. Keratinocytes were cultured in DMEM medium supplemented with 10% FCS. […] Assays were performed with cells between 80% and 90% of confluence and with a cell viability above 90% (tested by trypan blue staining). 20000 cells per experimental condition were seeded in 24 well plates with 1 mL of medium for 24 h. Culture medium was substituted for not supplemented DMEM and after a 24 hour incubation, compounds were added at 0.1 μM to assay wells. […] Plate was incubated for 30 min before the DNA extraction. DNA damage was quantified using the HCS DNA Damage kit (ThermoFisher®). “The HCS DNA Damage kit simultaneously and quantitatively measures two important cell-health parameters: DNA damage and cytotoxicity. DNA damage is detected using an antibody against phosphorylated H2AX (Ser139) which is induced in response to double-strand break (DSB) formation”. Plate was read using Fluoroscan at 355-460 nm for Hoechst (cell number) and 485-538 nm for the secondary antibody (DNA damage). Background is subtracted and relativized with values obtained from Hoechst staining in order to obtain the value of DNA damage relative to the cell count of each well. Results were normalized using the basal values.

[4] = biological target: T2, progesterone receptors (PR) (Homo sapiens, UniProt P06401); test: PR antagonist assay (GeneBLAzer beta-lactamase reporter, UAS-bla HEK 293T cells, R5020 as agonist); assay type: cell-based; conditions: for antagonist action on PR (in words): against promegestone (R5020)
T2 sequence (P06401 679-933 limits assumed): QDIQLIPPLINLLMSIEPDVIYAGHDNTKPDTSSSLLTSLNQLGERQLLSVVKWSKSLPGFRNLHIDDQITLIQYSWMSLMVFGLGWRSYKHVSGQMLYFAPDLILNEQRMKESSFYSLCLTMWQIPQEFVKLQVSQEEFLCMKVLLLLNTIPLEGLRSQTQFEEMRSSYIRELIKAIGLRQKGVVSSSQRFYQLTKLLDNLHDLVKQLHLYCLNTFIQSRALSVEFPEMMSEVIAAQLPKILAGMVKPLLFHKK
Procedure: An antagonist assay for PR was performed. In this assay, an engineered cell line (UAS-bla HEK 293T) expressing PR is used to test the action of two xanthophylls. The detection method consists in GeneBLAzer® technology, based on mammalian-optimized Beta-lactamase reporter gene (bla) combined with a FRET-enabled substrate.
In FIG. 7, neoxanthin and fucoxanthin were tested against the agonist promegestone (R5020).

[5] = tested on: p53 in HaCat keratinocytes; test: p53 quantification by ELISA after hydrocortisone (Human Total p53 DuoSet IC ELISA); assay type: cell-based; conditions: compounds at 0.1 and 1 μM, 1 h before 10 μM hydrocortisone, 2 h
Procedure: HaCat keratinocytes were cultured in DMEM medium supplemented with 10% FCS. […] Assays were performed with cells between 80% and 90% of confluence and with a cell viability above 90% (tested by trypan blue staining). 20000 cells per experimental condition were seeded in 24 well plates with 1 mL of medium for 24h. Culture medium was substituted for not supplemented DMEM and after a 24 hour incubation, compounds were added at 0.1 and 1 μM to assay wells. […] Cells were lysed in 100 μL of lysis buffer and 5 μg of total cell extract were used for the quantitative ELISA. Optical density was measured at 450 nm and background was subtracted.

| Compound | antagonist effect on GR (in words) [1] | protection of DNA from hydrocortisone-induced damage (in words) [3] | antagonist action on PR (in words) [4] | p53 expression in the presence of hydrocortisone (in words) [5] | GR inhibition [1] | also measured |
| --- | --- | --- | --- | --- | --- | --- |
| C\C(C=C=C1C(C)(C)C[C@H](O)C[C@@]1(C)O)=C/C=C/C(C)=C/C=C/C=C(C)/C=C/C=C(\C)C(=O)/C=C1\C(C)(C)C[C@H](O)C[C@@]1(C)O [iso-fucoxanthinol] |  |  |  |  |  | maximum GR inhibition ([1]; at 10 mM (so in the source), against dexamethasone (FIG. 6)): 80% |
| CC(=O)O[C@H]1C(=O)[C@@]2(C)[C@H]([C@H](OC(=O)c3ccccc3)[C@]3(O)C[C@H](OC(=O)[C@H](O)[C@@H](NC(=O)c4ccccc4)c4ccccc4)C(C)=C1C3(C)C)[C@]1(OC(C)=O)CO[C@@H]1C[C@@H]2O [paclitaxel, reference compound] |  |  |  |  |  | EC50 ([2]; Homo sapiens): 0.0044 µM |
| CC1=C(/C=C/C(C)=C/C=C/C(C)=C/C=C/C=C(C)/C=C/C=C(C)/C=C/C2=C(C)C(=O)[C@@H](O)CC2(C)C)C(C)(C)C[C@H](O)C1=O [astaxanthin] | neither compounds exercise an antagonist effect on GR |  |  |  |  |  |
| fucoxanthin | parcial antagonist | capable of protecting DNA | None of them showed an important antagonist action | increase p53 expression | 50% | PR inhibition ([4]; at the highest concentration tested, against R5020): 30%; EC50 ([2]; MTT, fucoxanthin alone): 7.46 µM; concentration from which compound acts as GR antagonist ([1]; against dexamethasone (FIG. 5)): 30 nM |
| CC1=C(/C=C/C(C)=C/C=C/C(C)=C/C=C/C=C(C)/C=C/C=C(C)/C=C/C2=C(C)CCCC2(C)C)C(C)(C)CCC1 [beta-carotene] | neither compounds exercise an antagonist effect on GR |  |  |  |  |  |
| CC(=C/C=C/C(C)=C/C=C/C=C(C)/C=C/C=C(\C)C=C=C1C(C)(C)C[C@H](O)C[C@@]1(C)O)/C=C/[C@@]12O[C@]1(C)C[C@@H](O)CC2(C)C [neoxanthin] | total antagonist | capable of protecting DNA | None of them showed an important antagonist action | increase p53 expression | above 85% |  |
